For assay [1], the target named is Cyclin-dependent kinase 11B (Homo sapiens) (UniProt P21127). The assay can be described thus: Inhibition of PITSLRE Lys2 labeling site in human Huh-7 cells at 1 uM by KiNativ Profiling analysis relative to control. Format: cell-based.
The target of assay [2] is Serine/threonine-protein kinase Nek7 (Homo sapiens) (UniProt Q8TDX7). The assay can be described thus: Inhibition of NEK7 Lys1 labeling site in human Huh-7 cells at 1 uM by KiNativ Profiling analysis relative to control. In kind it is cell-based.
For assay [3], the target named is Casein kinase I isoform delta (Homo sapiens) (UniProt P48730). The assay can be described thus: Inhibition of CK1delta Lys2 labeling site in human Huh-7 cell lysate at 1 uM by KiNativ Profiling analysis relative to control. Format: subcellular.
The target of assay [4] is Rho-associated protein kinase 1 (Homo sapiens) (UniProt Q13464). The assay can be described thus: Inhibition of ROCK1 in human Huh-7 cell lysate at 1 uM by KiNativ Profiling analysis relative to control. Format: subcellular.
For assay [5], the target named is T1, Phosphatidylinositol 5-phosphate 4-kinase type-2 gamma (Homo sapiens) (UniProt Q8TBX8).
T1 sequence (whole entry): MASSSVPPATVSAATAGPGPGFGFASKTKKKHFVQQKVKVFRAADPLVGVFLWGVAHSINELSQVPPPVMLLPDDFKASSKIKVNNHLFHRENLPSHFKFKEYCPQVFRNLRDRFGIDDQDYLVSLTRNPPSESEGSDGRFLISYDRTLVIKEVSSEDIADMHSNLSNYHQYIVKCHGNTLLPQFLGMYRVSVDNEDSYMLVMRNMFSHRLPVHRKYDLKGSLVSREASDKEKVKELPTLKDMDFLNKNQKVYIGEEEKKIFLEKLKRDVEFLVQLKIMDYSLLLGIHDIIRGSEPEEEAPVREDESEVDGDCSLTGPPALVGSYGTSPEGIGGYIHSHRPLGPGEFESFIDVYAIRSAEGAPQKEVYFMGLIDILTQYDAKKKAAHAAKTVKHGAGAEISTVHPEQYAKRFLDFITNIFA
The assay can be described thus: Inhibition of PIP4K2C ATP labeling site harbouring VKELPTLKDMDFLNK in human A-375 cells at 5 uM by KiNativ Profiling analysis relative to control. Format: cell-based.

In assay [6] the target is Serine/threonine-protein kinase PAK 1 (Homo sapiens) (UniProt Q13153). Kind of assay: Inhibition of PAK1 (unknown origin) at 1 uM by Ambit Kinomescan binding assay relative to control; values are per cent of control.
The target of assay [7] is T2, Receptor-interacting serine/threonine-protein kinase 4 (Homo sapiens) (UniProt P57078).
T2 sequence (whole entry): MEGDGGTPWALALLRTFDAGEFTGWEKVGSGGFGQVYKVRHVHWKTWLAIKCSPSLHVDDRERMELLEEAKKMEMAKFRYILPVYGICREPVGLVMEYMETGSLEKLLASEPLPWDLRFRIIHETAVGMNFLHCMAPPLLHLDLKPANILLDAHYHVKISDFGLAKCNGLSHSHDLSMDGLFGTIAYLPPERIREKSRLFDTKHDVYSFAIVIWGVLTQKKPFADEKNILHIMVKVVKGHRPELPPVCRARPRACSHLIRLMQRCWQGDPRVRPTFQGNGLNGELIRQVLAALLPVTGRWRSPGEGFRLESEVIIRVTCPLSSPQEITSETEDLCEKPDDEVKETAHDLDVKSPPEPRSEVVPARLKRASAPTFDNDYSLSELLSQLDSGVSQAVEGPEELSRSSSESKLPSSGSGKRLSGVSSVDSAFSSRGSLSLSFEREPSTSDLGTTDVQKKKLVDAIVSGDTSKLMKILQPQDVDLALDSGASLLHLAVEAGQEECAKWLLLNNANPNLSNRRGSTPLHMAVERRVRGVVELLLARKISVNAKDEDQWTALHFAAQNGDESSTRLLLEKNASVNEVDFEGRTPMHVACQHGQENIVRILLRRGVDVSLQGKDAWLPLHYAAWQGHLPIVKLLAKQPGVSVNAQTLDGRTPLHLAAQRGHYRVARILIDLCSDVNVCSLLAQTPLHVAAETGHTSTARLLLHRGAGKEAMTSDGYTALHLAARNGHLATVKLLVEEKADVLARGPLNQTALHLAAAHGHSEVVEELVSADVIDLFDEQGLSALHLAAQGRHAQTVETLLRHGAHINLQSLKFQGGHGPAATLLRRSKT
The assay can be described thus: Inhibition of ANKRD3 Lys1 labeling site in human A-375 cells at 5 uM by KiNativ Profiling analysis relative to control. In kind it is cell-based.

In assay [8] the target is SRSF protein kinase 2 (Homo sapiens) (UniProt P78362). The assay can be described thus: Inhibition of SRPK2 (unknown origin) at 1 uM by Ambit Kinomescan binding assay relative to control.
The nature of assay [9]: Inhibition of KHS1 Lys1 labeling site in human A-375 cells at 0.5 uM by KiNativ Profiling analysis relative to control. As to conditions: condition cancer.
Assay [10] deals with TGF-beta receptor type-2 (Homo sapiens) (UniProt P37173). The assay can be described thus: Inhibition of TGFBR2 (unknown origin) at 1 uM by Ambit Kinomescan binding assay relative to control.
Assay [11] concerns the target Serine/threonine-protein kinase SIK1 (Homo sapiens) (UniProt P57059). Kind of assay: Inhibition of SIK1 K2 labeling site in human Huh-7 cells at 10 uM by KiNativ Profiling analysis relative to control. In kind it is cell-based.
In assay [12] the target is Serine/threonine-protein kinase 24 (Homo sapiens) (UniProt Q9Y6E0). The assay can be described thus: Inhibition of MST3 K2 labeling site harbouring DIKAANVLLSEHGEVK in human Huh-7 cells at 1 uM by KiNativ Profiling analysis relative to control. In kind it is cell-based.
Assay [13] relates to Tyrosine-protein kinase ABL1 (Homo sapiens), P00519 [T315I]. Kind of assay: Inhibition of ABL1 T315I mutant (unknown origin) at 10 uM by Ambit Kinomescan binding assay relative to control; values are per cent of control.

Chain of Casein kinase I isoform delta (Homo sapiens) (P48730 whole entry, looked up, canonical isoform): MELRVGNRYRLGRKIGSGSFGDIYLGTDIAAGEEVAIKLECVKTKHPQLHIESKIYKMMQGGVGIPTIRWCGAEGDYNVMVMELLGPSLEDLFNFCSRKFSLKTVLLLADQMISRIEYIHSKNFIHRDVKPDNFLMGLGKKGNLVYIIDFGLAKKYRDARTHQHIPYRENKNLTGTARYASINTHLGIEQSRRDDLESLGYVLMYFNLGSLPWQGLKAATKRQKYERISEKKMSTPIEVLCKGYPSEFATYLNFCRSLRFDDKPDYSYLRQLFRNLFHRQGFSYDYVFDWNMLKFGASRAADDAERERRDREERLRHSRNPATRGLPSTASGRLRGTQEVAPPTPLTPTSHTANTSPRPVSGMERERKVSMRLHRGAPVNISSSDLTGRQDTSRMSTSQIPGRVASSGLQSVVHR
Chain of Serine/threonine-protein kinase Nek7 (Homo sapiens) (Q8TDX7 whole entry, looked up, canonical isoform): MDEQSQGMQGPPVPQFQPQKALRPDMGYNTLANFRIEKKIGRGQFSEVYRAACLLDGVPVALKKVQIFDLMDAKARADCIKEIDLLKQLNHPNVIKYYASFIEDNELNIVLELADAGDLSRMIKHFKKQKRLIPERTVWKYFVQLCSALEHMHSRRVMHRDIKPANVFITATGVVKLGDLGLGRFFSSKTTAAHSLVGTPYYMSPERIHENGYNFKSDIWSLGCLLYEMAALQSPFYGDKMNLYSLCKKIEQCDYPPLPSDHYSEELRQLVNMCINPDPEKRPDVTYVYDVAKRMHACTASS
Chain of SRSF protein kinase 2 (Homo sapiens) (P78362 whole entry, looked up): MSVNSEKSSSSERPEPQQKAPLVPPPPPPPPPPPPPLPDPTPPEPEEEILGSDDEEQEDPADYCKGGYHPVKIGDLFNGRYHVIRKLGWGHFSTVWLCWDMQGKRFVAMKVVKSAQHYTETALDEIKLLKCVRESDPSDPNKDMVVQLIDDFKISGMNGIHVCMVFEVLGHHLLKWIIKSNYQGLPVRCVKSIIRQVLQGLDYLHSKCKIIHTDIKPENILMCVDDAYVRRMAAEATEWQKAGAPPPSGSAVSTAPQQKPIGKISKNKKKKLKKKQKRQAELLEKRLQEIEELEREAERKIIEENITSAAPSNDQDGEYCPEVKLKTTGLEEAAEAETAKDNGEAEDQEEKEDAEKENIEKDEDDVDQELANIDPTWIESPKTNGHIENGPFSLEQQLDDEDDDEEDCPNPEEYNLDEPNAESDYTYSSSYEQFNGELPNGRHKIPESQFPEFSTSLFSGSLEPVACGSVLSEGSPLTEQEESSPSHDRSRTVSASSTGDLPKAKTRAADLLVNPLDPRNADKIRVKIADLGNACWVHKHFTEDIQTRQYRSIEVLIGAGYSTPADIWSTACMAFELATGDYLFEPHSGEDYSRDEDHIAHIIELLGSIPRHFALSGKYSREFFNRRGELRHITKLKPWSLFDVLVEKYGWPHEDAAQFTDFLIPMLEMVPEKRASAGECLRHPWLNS
Chain of Serine/threonine-protein kinase SIK1 (Homo sapiens) (P57059 whole entry): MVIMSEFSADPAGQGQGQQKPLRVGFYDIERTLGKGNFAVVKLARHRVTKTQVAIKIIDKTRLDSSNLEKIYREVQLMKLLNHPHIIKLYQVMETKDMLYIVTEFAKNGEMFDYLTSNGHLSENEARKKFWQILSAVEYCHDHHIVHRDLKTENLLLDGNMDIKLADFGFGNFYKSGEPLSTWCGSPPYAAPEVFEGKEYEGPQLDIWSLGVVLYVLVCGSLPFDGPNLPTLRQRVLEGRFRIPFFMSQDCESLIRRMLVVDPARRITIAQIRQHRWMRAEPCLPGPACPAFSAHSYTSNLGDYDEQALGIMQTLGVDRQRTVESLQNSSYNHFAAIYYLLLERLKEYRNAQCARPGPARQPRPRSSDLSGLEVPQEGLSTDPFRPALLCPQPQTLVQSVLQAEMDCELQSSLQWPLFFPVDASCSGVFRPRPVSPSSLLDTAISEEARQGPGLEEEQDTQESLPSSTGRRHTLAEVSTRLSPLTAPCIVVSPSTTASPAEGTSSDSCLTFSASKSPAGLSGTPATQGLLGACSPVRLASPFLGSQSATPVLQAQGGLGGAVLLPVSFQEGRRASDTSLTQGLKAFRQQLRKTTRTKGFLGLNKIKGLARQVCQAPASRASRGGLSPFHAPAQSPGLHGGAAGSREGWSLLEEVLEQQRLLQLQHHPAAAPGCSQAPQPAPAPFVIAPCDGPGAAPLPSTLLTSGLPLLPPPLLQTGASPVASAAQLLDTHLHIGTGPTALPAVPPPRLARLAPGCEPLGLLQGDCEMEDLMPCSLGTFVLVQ
Chain of TGF-beta receptor type-2 (Homo sapiens) (P37173 whole entry): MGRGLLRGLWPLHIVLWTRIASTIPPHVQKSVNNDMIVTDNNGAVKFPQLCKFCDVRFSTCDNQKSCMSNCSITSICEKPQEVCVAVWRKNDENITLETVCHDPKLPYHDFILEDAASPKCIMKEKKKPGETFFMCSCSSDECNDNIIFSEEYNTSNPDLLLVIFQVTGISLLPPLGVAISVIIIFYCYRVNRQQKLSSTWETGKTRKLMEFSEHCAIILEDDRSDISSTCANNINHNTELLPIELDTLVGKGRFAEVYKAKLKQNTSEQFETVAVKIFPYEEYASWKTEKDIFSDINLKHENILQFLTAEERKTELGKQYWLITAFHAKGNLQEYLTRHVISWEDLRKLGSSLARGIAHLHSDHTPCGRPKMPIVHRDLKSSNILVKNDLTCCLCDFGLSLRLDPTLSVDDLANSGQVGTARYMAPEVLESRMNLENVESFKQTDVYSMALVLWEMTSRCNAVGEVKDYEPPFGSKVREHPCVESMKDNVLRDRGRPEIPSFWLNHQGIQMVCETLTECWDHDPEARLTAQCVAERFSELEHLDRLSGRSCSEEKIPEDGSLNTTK
Chain of Rho-associated protein kinase 1 (Homo sapiens) (Q13464 2-1354 limits assumed): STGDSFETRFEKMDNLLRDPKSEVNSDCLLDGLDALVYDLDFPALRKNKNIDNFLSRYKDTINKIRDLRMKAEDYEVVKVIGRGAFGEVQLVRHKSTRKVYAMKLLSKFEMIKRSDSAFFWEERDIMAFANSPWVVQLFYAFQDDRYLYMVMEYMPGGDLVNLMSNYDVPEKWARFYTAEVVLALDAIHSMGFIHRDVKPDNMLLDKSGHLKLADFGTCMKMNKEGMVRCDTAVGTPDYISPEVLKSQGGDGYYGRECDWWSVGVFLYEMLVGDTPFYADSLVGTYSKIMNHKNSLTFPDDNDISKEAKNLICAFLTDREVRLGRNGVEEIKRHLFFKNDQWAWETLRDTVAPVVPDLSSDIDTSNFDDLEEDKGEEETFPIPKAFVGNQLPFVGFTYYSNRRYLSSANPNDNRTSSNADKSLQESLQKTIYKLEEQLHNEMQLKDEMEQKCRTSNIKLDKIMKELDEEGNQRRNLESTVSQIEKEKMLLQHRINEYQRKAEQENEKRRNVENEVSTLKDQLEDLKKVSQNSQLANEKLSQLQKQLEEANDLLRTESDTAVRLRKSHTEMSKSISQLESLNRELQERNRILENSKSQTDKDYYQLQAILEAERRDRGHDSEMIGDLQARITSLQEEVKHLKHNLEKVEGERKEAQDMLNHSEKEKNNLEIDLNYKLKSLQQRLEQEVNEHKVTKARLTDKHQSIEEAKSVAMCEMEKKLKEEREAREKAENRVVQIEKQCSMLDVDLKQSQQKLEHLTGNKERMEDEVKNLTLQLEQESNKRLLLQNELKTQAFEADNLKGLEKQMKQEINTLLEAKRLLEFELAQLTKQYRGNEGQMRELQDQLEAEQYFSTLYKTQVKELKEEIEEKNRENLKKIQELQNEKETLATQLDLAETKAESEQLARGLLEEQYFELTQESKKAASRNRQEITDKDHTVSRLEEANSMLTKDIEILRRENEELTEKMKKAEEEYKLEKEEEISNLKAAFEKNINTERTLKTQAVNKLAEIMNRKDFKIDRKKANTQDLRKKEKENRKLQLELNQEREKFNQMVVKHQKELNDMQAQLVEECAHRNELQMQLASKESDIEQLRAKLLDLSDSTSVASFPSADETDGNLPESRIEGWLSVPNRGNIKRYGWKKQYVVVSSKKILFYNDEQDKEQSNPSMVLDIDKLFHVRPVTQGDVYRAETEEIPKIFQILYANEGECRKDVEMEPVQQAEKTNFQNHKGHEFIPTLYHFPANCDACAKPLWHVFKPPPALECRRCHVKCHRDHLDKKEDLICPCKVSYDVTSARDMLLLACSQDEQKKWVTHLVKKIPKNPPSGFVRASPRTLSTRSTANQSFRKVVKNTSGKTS
Chain of Serine/threonine-protein kinase 24 (Homo sapiens) (Q9Y6E0 whole entry, looked up): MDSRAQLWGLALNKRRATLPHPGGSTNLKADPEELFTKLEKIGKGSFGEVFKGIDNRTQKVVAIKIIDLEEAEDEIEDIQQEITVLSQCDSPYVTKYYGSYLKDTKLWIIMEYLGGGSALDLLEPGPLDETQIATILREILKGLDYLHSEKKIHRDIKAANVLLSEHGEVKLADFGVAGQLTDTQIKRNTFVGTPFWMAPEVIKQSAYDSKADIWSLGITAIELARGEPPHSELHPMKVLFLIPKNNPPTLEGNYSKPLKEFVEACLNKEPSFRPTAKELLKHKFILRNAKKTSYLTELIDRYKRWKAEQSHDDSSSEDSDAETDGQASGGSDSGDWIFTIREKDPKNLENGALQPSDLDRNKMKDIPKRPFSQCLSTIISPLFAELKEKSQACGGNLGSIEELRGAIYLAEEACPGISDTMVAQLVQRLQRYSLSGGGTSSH

A word on the inhibition: it is the change of the read-out against control, counted positive when it falls. In the case of `CNc1cc(Oc2cc(C(=O)Nc3cc(N4CCN(C)CC4)cc(C(F)(F)F)c3)ccc2C)ncn1`, the inhibition in assay [1] came out at 15.6%; in [2] it was 7.6%; in [3] it was 0.6%; in assay [4], 7.6%.

For orientation: residual activity means the activity still measured, relative to the control. Read a low residual activity as little activity left. With `CCN1CCN(Cc2ccc(NC(=O)c3ccc(C)c(/C=C/c4cnc5[nH]ccc5c4OC)c3)cc2C(F)(F)F)CC1`, the inhibition in assay [5] stood at 8.5%; in [7], 17%; in assay [8], 76%; in assay [10] it was 52%. In addition, the residual activity in assay [6] was found to be 100%. Further, in [9], the inhibition at 0.5 µM stood at 53.7%.

For `CCN1CCN(Cc2ccc(NC(=O)c3ccc(C)c(Oc4ccnc5[nH]ccc45)c3)cc2C(F)(F)F)CC1`, the values for the inhibition in [11] and in assay [12] were 6.6% and -7.8%, respectively. Further, in [13], the percent of control was 0%.

Source of the values: ChEMBL document CHEMBL5696442, “Discovery of type II inhibitors of TGFβ-activated kinase 1 (TAK1) and mitogen-activated protein kinase kinase kinase kinase 2 (MAP4K2)” (J Med Chem, 2015).
